Results as given in publication PMC4772718 (Bioconjugate chemistry, 2015).

Target: Bruton's tyrosine kinase (Btk) (Homo sapiens, UniProt Q06187)
Assay: IC50
Assay type: biochemical

Bruton's tyrosine kinase (Btk), sequence (Q06187 2-659): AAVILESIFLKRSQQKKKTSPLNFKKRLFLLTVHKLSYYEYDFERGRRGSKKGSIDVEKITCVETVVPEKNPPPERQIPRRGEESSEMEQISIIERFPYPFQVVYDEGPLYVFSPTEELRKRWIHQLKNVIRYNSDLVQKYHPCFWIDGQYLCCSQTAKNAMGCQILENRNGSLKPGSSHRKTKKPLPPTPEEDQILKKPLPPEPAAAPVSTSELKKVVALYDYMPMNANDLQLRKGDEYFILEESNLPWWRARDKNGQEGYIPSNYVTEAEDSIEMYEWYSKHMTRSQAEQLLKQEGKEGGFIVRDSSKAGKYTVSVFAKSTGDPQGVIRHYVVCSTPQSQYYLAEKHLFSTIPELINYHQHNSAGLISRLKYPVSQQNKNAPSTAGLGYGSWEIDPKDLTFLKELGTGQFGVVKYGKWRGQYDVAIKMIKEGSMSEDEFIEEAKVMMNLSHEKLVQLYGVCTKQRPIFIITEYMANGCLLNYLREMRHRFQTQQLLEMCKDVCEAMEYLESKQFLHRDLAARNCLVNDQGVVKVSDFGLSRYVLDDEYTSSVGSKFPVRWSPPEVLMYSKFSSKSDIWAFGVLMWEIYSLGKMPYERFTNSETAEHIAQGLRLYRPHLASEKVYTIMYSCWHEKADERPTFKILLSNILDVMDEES

- IC50: 284 nM
Substance: AVL-292-SiR-COOH
